Experimental data from patent US20070081978A1, “Adeno-associated virus-mediated survivin mutants and methods related thereto” (priority 2005, published 2007).

Legend:
SW1116 cells [1] = assay: Drug-induced apoptosis by FACS analysis (Table 1); type: cell-based, Human; settings: rAAV 1×10^5 viral particle/cell, or followed by 10 μg/ml 5-fluorouracil for 72 hour; mean ± SEM
Experimental: Cells were collected and fixed in ice-cold 70% ethanol in PBS and stored at −20° C. before use. After re-suspension, cells were washed and incubated with 100 μl of RNase I (1 mg/ml) and 100 μl of propidium iodide (400 μg/ml; Sigma) at 37° C. for 30 min. Samples were analyzed by flow cytometry (Coulter, Luton). The cell-cycle phase distribution was calculated from the resultant DNA histogram using Multicycle AV software (Phoenix Flow Systems, San Diego, Calif.). Cells with subdiploid DNA content were scored as apoptotic.

SW1116 cells [2] = assay: Survival of xenograft-bearing mice; type: in vivo, BALB/c nude mice
Experimental: rAAV-Sur-Mut(Cys84Ala) prolonged the survival of mice. (A) Masses were injected in three sites with rAAV-Sur-Mut(Cys84Ala), rAAV-Sur(wt) and rAAV-eGFP at 5×10^10 viral particles/site of injection, or in combination with 5-Fluorouracil for 5 days. Tumor xenografts were collected and tissue sections of formalin-fixed, paraffin-embedded xenograft were TUNEL stained for apoptosis. (B) Survival curve. The experimental conditions were as in (A) Survival was monitored every day, and tumor volume was measured every week after treatment. Definition of death is natural death due to tumor burden or killing due to tumor sizes (diameter) more than 2.5 cm.
Five- to six-week-old female BALB/c nude mice were injected subcutaneously on the flanks with 2×10^6 exponentially growing SW1116 cells. Tumors were allowed to grow to 100˜150 mm^3 (5˜7 mm diameter). For local administration of rAAV, masses were injected in three sites with rAAV-Sur-Mut(Cys84Ala), rAAV-Sur(wt) or rAAV-EGFP at 5×10^10 viral particles/site of injection, or at each of the three site with PBS. Alternatively, mice were i.p. injected with 50 mg/kg 5-fluorouracil daily for 5 days, or a combination of rAAV virus and 5-Fluorouracil. Tumor growth was measured weekly after injection. In other experiments, mice received an injection of uninfected exponentially growing 2×10^6 SW1116 cells. […]

SW1116 cells [3] = assay: Intratumoral rAAV gene therapy in colon cancer xenograft model: tumor growth; type: in vivo, BALB/c nude mice; settings: rAAV 5×10^10 particles/site, 3 sites; 5-FU i.p. 50 mg/kg on each of 5 days
Experimental: rAAV-Sur-Mut(Cys84Ala) inhibited tumor growth. (A) Untreated SW1116 cell were subcutaneously injected into the right flank of athymic female nude mice. Tumors were allowed to grow to approximately 100-150 mm^3 volume. Masses were injected in three sites with rAAV-Sur-Mut(Cys84Ala), rAAV-eGFP or rAAV-Sur(wt) at 5×10^10 viral particles/site of injection, or with PBS. Photographs were taken from representative mice 4 weeks after treatment. (B) Tumor growth was measured every week after injection. Data are the means±SEM of tumor size per mouse. (C) Tissue sections of formalin-fixed, paraffin-embedded xenograft tumors were stained by H&E, immunohistochemical stained for survivin or TUNEL stained for detection of apoptotic cells. Images were representative fields of view from tumors 5 days after treatment. (Original magnification ×200)
Five- to six-week-old female BALB/c nude mice were injected subcutaneously on the flanks with 2×10^6 exponentially growing SW1116 cells. Tumors were allowed to grow to 100˜150 mm^3 (5˜7 mm diameter). For local administration of rAAV, masses were injected in three sites with rAAV-Sur-Mut(Cys84Ala), rAAV-Sur(wt) or rAAV-EGFP at 5×10^10 viral particles/site of injection, or at each of the three site with PBS. Alternatively, mice were i.p. injected with 50 mg/kg 5-fluorouracil daily for 5 days, or a combination of rAAV virus and 5-Fluorouracil. Tumor growth was measured weekly after injection. In other experiments, mice received an injection of uninfected exponentially growing 2×10^6 SW1116 cells. After 7 days, mice were given an injection of same dosage of rAAV virus and 5-FU (3 animals/group). After 5 days, animals were euthanized, and their total tumor burden was excised, fixed and embedded in paraffin blocks for H&E, TUNEL and immunohistochemical staining, or tumors were snap-frozen in liquid nitrogen for CD31 staining.

**Q.** How did the “% Apoptosis” value (SW1116 cells [1]) turn out when `O=c1[nH]cc(F)c(=O)[nH]1` [5-FU, 5-fluorouracil] was run?
**A.** The value was 26.0 ± 3.4%.

**Q.** What about the “survival (comparison in words)” value (SW1116 cells [2]; mouse, in vivo) of the same compound?
**A.** The value was “survived significantly longer than buffer-treated mice”.

**Q.** And the clinical symptoms (SW1116 cells [2]; tumor-bearing mice)?
**A.** Its clinical symptoms is “developed severe symptoms related to tumor growth”.

**Q.** And the “Number of mice with tumor regression” value (SW1116 cells [3])?
**A.** The value was 0/4.

**Q.** And the Rate of inhibition (SW1116 cells [3])?
**A.** Its Rate of inhibition is 61.2%.

**Q.** And the Tumor size (SW1116 cells [3])?
**A.** Its Tumor size is 606.3 ± 106.7 mm^3.
